We go through 13 compounds from ChEMBL document CHEMBL1143063, “Discovery of 3-piperidinyl-1-cyclopentanecarboxamide as a novel scaffold for highly potent CC chemokine receptor 2 antagonists” (J Med Chem, 2007).

Activity calls are given as the source filed them.

The target of data set [1] is T1, C-C chemokine receptor type 2 (Homo sapiens, UniProt P41597). The experiment in a line: Displacement of [125]hMCP1 from human CCR2 receptor expressed in human monocytes. It is filed as cell-based.
In data set [2] the target is C-C chemokine receptor type 2 (Mus musculus) (UniProt P51683). Kind of data set: (§1) Displacement of [125]hMCP1 from mouse CCR2 receptor expressed in CHO cells. It is filed as cell-based.
Sequence of C-C chemokine receptor type 2 (Mus musculus) (P51683 whole entry, looked up): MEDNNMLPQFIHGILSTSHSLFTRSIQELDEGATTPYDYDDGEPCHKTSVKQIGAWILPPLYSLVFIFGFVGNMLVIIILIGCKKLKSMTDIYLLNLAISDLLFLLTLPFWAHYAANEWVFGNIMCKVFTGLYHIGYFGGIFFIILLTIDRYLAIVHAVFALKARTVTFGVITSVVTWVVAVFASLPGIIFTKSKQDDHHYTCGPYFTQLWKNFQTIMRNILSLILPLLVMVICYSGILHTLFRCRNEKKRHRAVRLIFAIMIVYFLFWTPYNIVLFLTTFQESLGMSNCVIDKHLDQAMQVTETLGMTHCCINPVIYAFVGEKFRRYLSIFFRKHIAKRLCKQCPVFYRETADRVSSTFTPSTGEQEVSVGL
Data set [3] has as its target T1, C-C chemokine receptor type 2. The experiment in a line: Displacement of [125]hMCP1 from human CCR2 receptor expressed in human monocytes at 1 uM. It counts as cell-based.
Target sequence in this assay (P41597 whole entry, looked up): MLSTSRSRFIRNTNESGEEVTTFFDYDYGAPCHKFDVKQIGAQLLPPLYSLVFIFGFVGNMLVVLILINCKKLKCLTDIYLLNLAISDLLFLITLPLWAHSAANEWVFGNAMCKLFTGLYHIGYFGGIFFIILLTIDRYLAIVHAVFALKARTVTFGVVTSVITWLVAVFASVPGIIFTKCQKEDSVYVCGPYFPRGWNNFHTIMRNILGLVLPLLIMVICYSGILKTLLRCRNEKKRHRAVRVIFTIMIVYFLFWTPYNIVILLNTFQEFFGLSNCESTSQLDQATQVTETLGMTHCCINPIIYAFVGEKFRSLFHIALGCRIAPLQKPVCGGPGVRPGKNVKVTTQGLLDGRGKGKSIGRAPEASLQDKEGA
Data set [4] in a line: Oral bioavailability in rat. It is filed as ADME, organism-based. The conditions noted are these: in vivo.
The nature of data set [5]: Volume of distribution in rat. The conditions noted are these: in vivo, read-out: Vss. It is filed as ADME, organism-based.
The nature of data set [6]: Half life in rat. It is filed as ADME, organism-based. To be noted: in vivo.
The target of data set [7] is C-C chemokine receptor type 2 (Mus musculus, UniProt P51683). The description is as §1. It is filed as cell-based.
Sequence of C-C chemokine receptor type 2 (Mus musculus, UniProt P51683) (P51683 whole entry): as the sequence (P51683 whole entry, looked up) above
In data set [8] the target is C-C chemokine receptor type 5 (Homo sapiens, UniProt P51681). The experiment in a line: Displacement of MIP1alpha from CCR5 receptor.
Sequence of C-C chemokine receptor type 5 (P51681 whole entry): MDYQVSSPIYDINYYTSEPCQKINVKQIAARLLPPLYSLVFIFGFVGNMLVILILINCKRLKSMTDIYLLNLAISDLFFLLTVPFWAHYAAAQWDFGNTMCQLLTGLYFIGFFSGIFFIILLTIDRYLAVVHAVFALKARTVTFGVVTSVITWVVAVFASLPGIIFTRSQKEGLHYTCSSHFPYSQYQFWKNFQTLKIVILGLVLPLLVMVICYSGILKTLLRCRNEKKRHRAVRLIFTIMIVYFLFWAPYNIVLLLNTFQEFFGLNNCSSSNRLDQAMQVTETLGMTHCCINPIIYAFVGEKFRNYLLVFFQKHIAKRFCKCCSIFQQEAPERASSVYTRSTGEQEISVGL
Data set [9] is described as follows: Plasma clearance in rat. It counts as ADME, organism-based.
Data set [10] has as its target T1, C-C chemokine receptor type 2. The experiment in a line: Antagonist activity against human CCR2 receptor assessed as inhibition of MCP1-induced calcium flux in human monocytes. It counts as functional, cell-based. A general note: Calcium assays in cells follow changes in intracellular calcium, usually with a dye or a luminescent sensor.
Target sequence in this assay (P41597 whole entry): as the sequence (P41597 whole entry, looked up) above
The target of data set [11] is C-C chemokine receptor type 2 (Mus musculus) (UniProt P51683). Kind of data set: Displacement of [125]hMCP1 from mouse CCR2 receptor expressed in CHO cells at 1 uM. It is filed as cell-based.

As to `CC1C[C@@H](N2CC[C@@]3(C=Cc4ccccc43)[C@@H](C)C2)C[C@H]1C(=O)NCc1cc(C(F)(F)F)cc(C(F)(F)F)c1` (some centres undefined), the half-inhibitory concentration (IC50) (as a rule, the midpoint of a concentration-inhibition curve) in data set [1] was greater than 1000 nM. Further, the outcome in data set [2] was inactive.
`O=C(NCc1cc(C(F)(F)F)cc(C(F)(F)F)c1)[C@@H]1CC[C@@H](N2CCC(c3ccccc3)CC2)C1` showed an Activity in data set [3] of 25%.
Regarding `O=C(NCc1cc(C(F)(F)F)cc(C(F)(F)F)c1)[C@H]1CC[C@H](N2CCC(c3ccccc3)CC2)C1`, the Activity in data set [3] was determined as 44%.
Consider `O=C(NCc1cc(C(F)(F)F)cc(C(F)(F)F)c1)[C@@H]1CC[C@H](N2CCC(c3ccccc3)CC2)C1`, for which the Activity in data set [3] was determined as 30%.
As to `O=C(NCc1cc(C(F)(F)F)cc(C(F)(F)F)c1)[C@H]1CC[C@@H](N2CCC3(C=Cc4ccccc43)CC2)C1`, the IC50 in data set [1] turned out to be 7.5 nM. For the same compound, the outcome in [2] was inactive.
For the compound `O=C(NCc1cc(C(F)(F)F)cc(C(F)(F)F)c1)[C@H]1CC[C@@H](N2CCC(c3ccccc3)CC2)C1`, the IC50 in data set [1] was 36 nM.
With `O=C1C(CCN2CCC(c3ccccc3)CC2)CCCN1Cc1cc(C(F)(F)F)cc(C(F)(F)F)c1` (centres undefined), in data set [1], the result was inactive.
`O=C1C(CCN2CCC(c3ccccc3)CC2)CCN1Cc1cc(C(F)(F)F)cc(C(F)(F)F)c1` (centres undefined): in data set [1], the outcome was inactive.
As to `O=C(NCc1cc(C(F)(F)F)cc(C(F)(F)F)c1)C1CCC(N2CCC(c3ccccc3)CC2)C1` (centres undefined), the IC50 in [1] is 65 nM.
Consider `C[C@H]1CN([C@@H]2CC[C@](C)(C(=O)NCc3cc(C(F)(F)F)cc(C(F)(F)F)c3)C2)CC[C@@]12C=Cc1ccccc12`, for which the bioavailability – broadly, the share of a dose that reaches the circulation, judged against a reference dose that is usually intravenous – in data set [4] came out at 15%. Moreover, the Vd in data set [5] is 6 L/kg. For the same compound, the half-life (as a rule, the time needed for the level to fall by half in the phase considered) in data set [6] was 8.1 h. The half-inhibitory concentration (IC50) in data set [1] was 1.3 nM; in [7], 130 nM; in data set [8], 630 nM. Besides, in [9], the clearance (in general, a measure of how efficiently the substance is removed, as volume per time) came to 50 mL/min/kg.
Turning to `O=C(NCc1cc(C(F)(F)F)cc(C(F)(F)F)c1)C1CCCC(N2CCC(c3ccccc3)CC2)C1` (centres undefined), the Activity in [3] worked out at 23%.
Take `C[C@H]1CN([C@@H]2CC[C@H](C(=O)NCc3cc(C(F)(F)F)cc(C(F)(F)F)c3)C2)CC[C@@]12C=Cc1ccccc12`: the values for the IC50 in data set [10] and in data set [1] were 2.3 nM and 1.4 nM, respectively. In [11], this compound displayed an Activity of 27%.
In the case of `C[C@]1(C(=O)NCc2cc(C(F)(F)F)cc(C(F)(F)F)c2)CC[C@@H](N2CCC3(C=Cc4ccccc43)CC2)C1`, the IC50 in data set [1] worked out at 47 nM. The same compound registered an Activity in [11] of 27%.
